Reference: patent US20250154212A1, “METHOD OF DISRUPTING MEMORY AND LIPOPEPTIDE FOR USE IN SUCH METHOD” (The Research Foundation for The State University of New York, priority 2023, published 2025)

Target: T1, KIBRA-PKMζ[PKCι/λ-P291Q;F297S] interaction (Homo sapiens, UniProt Q05513, F480S/P474Q)
T1 construct: expressed in transfected cells; host or cells: HEK293T
T1 sequence (Q05513 184-592 P474Q/F480S): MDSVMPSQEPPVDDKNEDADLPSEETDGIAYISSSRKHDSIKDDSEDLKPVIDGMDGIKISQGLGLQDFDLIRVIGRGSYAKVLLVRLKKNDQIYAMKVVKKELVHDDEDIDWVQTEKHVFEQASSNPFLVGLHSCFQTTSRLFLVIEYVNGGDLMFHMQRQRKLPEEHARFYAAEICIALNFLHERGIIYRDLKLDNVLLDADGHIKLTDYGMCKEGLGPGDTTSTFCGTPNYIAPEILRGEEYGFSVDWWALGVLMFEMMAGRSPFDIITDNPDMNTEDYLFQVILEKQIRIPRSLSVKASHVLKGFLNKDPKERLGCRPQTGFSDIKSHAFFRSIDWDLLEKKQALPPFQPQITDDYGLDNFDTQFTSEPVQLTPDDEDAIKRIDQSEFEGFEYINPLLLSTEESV
Experiment: BiFC assay of KIBRA with mutant PKMζ[PKCι/λ-P291Q;F297S] in HEK293T cells
Type: cell-based
Details: 10 μM
Description: KIBRA-PKMζ BiFC was performed as previously described (28), using pVen1-FLAG-KIBRA and pVen2-HA-PKMζ, in which PKMζ was cloned between EcoR1 and BamH1 sites. The constructs pVen1 and pVen2 encode the N-terminus (amino acids 1-154) and C-terminus (amino acids 155-238) of the Venus protein, respectively, and the Venus fragments were on the N-terminal of the fusion proteins. pVen2-HA-PKMζ[PKCι/λ-P291Q;F297S] was generated by site-directed mutagenesis using forward-cctggagAagcAAatceggatcccccggtCcctgtccgte and reverse-gacggacaggGaccgggggatccggatTTgctTctccagg primers and the QuickChange II XL Site-Directed Mutagenesis Kit (Agilent Technologies), following manufacturer's instructions. Additional pVen2-HA-PKC isoforms and pVen2-HA-CaMKIIα in the pVen2-HA vector were generated by cloning the N-terminus of the coding sequence of each kinase (table S1) to obtain an in-frame fusion at the C-terminus of the pVen2-HA. Human versions of KIBRA and kinases were used, and all PCR amplified sequences and constructs were verified by DNA sequencing.
HEK293T cells were cultured in Dulbecco's Modified Eagle's Medium supplemented with 10% heat-inactivated fetal bovine serum, 100 U/ml penicillin, […] streptomycin, 2 mM glutamine, and 10 mM HEPES in a T75 tissue culture flask with canted neck and ventilated cap. […]

In the case of O=S(=O)(O)c1cc(O)c2c(S(=O)(=O)O)cc(S(=O)(=O)O)cc2c1 [ζ-stat, 1-naphthol-3,6,8-trisulphonic acid], the “effect on KIBRA interaction with mutated PKMζ[PKCι/λ-P291Q;F297S] (BiFC)” value is reported as “does not inhibit” and the “effect on KIBRA interaction with mutated PKMζ[PKCι/λ-P291Q;F297S] (BiFC)” value (listed as z-stat) is reported as “has no effects”.
